Source: patent EP0539088B1, “Echinocandin b derivative” (MERCK & CO. INC., priority 1991, dated 1993)
Where a name gives a salt, the structure may show the parent alone.

Tests used:
[1] = tested on: Candida albicans MY 1028; assay: Minimum fungicidal concentration (MFC), microbroth dilution assay in YNBD; format: cell-based; conditions: MY1028, 35°C 24 hours, then SDA 24 hours at 28°C
Source text: (§1) The compounds of the present invention are active against many fungi and as previously indicated particularly against Candida species. The antifungal properties may be illustrated with the minimum fungicidal concentration (MFC) determination against certain Candida organisms in a microbroth dilution assay carried out in a Yeast Nitrogen Base (Difco) medium with 1 percent dextrose (YNBD).
(§2) In carrying out the assay, Compound I was solubilized in 10 percent dimethyl sulfoxide (DMSO) and diluted to 2560 µg/ml. The compound was then diluted to 256 µg/ml in YNBD. 0.15 mL of the suspension was dispensed to the top row of a 96-well plate (each well containing 0.15 ml of YNBD) resulting in a drug concentration of 128 µg/ml. Two-fold dilutions were then made from the top row to obtain final drug concentrations ranging from 128 to 0.06 µg/ml. […]
(§3) 96-well microplates were inoculated-using a MIC-2000 (Dynatech) which delivers […] per well yielding a final inoculum per well of 1.5-7.5 x 10^3 cells. […] The minimum inhibitory concentrations (MICs) were recorded as the lowest concentrations of drug showing no visible growth.
(§4) After recording the MIC, the plates were shaken to resuspend the cells. […] The inoculated trays were incubated 24 hours at 28°C and then read for minimum fungicidal concentration (MFC). […]

[2] = tested on: Candida albicans MY 1055; assay: as above; format: cell-based; conditions: MY1055, 35°C 24 hours, then SDA 24 hours at 28°C
Source text: as §1, §2, §3, §4

[3] = tested on: Candida albicans (MY 1055); assay: In vivo kidney CFU reduction in mice infected with Candida albicans; design: species or system female DBA/2 mice; conditions: 0.4 mg/kg I.P. twice daily for four consecutive days; kidneys after seven days
Method: Growth from an overnight SDA culture of Candica albicans MY 1055 was suspended in sterile saline and the cell concentration determined by hemacytometer count and the cell suspension adjusted to 3.75 x 10^5 cells/ml. Then 0.2 milliliter of this suspension was administered I.V. in the tail vein of mice so that the final inoculum was 7.5 x 10^4 cells/mouse.
The assay then was carried out by administering aqueous solutions of Compound I at various concentrations intraperitoneally (I.P.), twice daily (b.i.d.) for four consecutive days to 18 to 20 gram female DBA/2 mice, which previously had been infected with Candida albicans (MY 1055) in the manner described above. Distilled water was administered I.P. to C. albicans challenged mice as controls. After seven days, the mice were sacrificed by carbon dioxide gas, paired kidneys were removed aseptically and placed in sterile polyethylene bags containing 5 milliters of sterile saline. The kidneys were homogenized in the bags, serially diluted in sterile saline and aliquots spread on the surface of SDA plates. The plates were incubated at 35°C for 48 hours and yeast colonies were enumerated for determination of colony forming units (CFU) per gram of kidneys.

[4] = tested on: red blood cells; assay: Red blood cell lysis, minimum lytic concentration; format: cell-based, human
Source text: A harmful and potentially fatal side reaction of a number of drugs including certain antibiotically active echinocandin compounds is red blood cell lysis. […] The blood cell lysis property may be seen in the determination carried out in the following manner.
The blood employed is a 4 percent suspension of freshly drawn heparinized blood prepared by adding 2 milliliters of blood to 50 milliliters of sterile 5 percent dextrose.
Compound I was solubilized in a small volume of dimethylsulfoxide (DMSO) that was then diluted with distilled water to a final concentration of 5 percent DMSO to obtain a drug suspension of 4.0 mg/ml. A 0.2 milliliter amount of the drug suspension was added to 1.4 milliliters of sterile 5 percent dextrose to obtain the test suspension. A diluent control was also prepared.
A 96-well microliter plate with a well volume of 0.35 ml was used for the assay. Columns 2-12 were filled with 150 µl of sterile 5 percent dextrose. Then, 300 µl of test suspensions were dispensed into the wells in column 1 and serially two-fold diluted in 5 percent dextrose to yield final test concentrations of from 400 to 0.20 µg/ml. […]

Structure (SMILES): CCC(C)CC(C)CCCCCCCCC(=O)NC1CC(O)C(OCCN)NC(=O)C2C(O)CCN2C(=O)C(C(O)CC(N)=O)NC(=O)C(C(O)C(O)c2ccc(O)cc2)NC(=O)C2CC(O)CN2C(=O)C(C(C)O)NC1=O (centres unmarked) [Compound I, 1-[4-hydroxy-5-aminoethyloxy-N^2-(10,12-dimethyl-1-oxotetradecyl)-ornithine]-5-(3-hydroxyglutamine)-6-(3-hydroxyproline)-echinocandin B trifluoroacetate]
- MFC [1]: 0.25 µg/mL
- MFC [2]: 0.125 µg/mL
- reduction of recoverable Candida CFUs [3]: greater than 99%
- red blood cell lysis ([4]; at concentrations far beyond what would be used for therapeutic purposes): no red blood cell lysis
- Minimum lytic concentration (MLC) ([4]; lowest concentration producing complete or partial lysis, 2 hours at room temperature, tested 400 to 0.20 µg/ml): 400 µg/mL
